The values that follow are results of earlier work, collected in paper PMC2929769 (Toxicon : official journal of the International Society on …, 2010).

In this data set the test system is RTA. The settings on record: read-out: RTA IC50.

In the case of `Nc1nc(=O)c(CCCc2ccc(C(=O)O)cc2)c(O)[nH]1` [PBA, 4-[3-(2-amino-1,4-dihydro-6-hydroxy-4-oxo-5-pyrimidinyl)propyl]-benzoic acid], the IC50 (as a rule, the concentration needed to halve the response being measured) was 270 µM.
